Measured values as given in patent US20090208550A1, “Methods and compositions for treating hepatic diseases” (priority 2007, published 2009).

Legend:
[1] = system: AML-12 mouse hepatocyte cell line; experiment: Oil Red O staining, lipid content of AML-12 hepatocytes (Example 1); format: cell-based; conditions: AML-12 cells, 24 hours
[2] = system: ATP citrate lyase (ACL) mRNA; experiment: Real-time PCR of ACL mRNA in cultured AML-12 hepatocytes; format: cell-based, mouse; conditions: AML-12 cells, 24 hours; for mRNA for ACL: 10^-6M, control 100.0%, n=3
Description: (§1) Total RNA was isolated from cultured hepatocytes using Trizol reagent (Invitrogen, USA) and RNA extracted according to the manufacturer's instructions, then dissolved in sterile DEPC water and stored at −80° C. 1 μg RNA of sample RNA was transcribed to cDNA with the GeneAmp RNA Core Kit (Applied Biosystems, Branchburg, N.J.). Primer sequences ATP citrate lyase (ACL): forward 5′-GAAGCTGACCTTGCTGAACC-3′, reverse 5′-CTGCCTCCAATGATGAGGAT-3′; fatty acid synthase (FAS): forward 5′-TGGGTTCTAGCCAGCAGAGT-3′, reverse: 5′-ACCACCAGAGACCGTTATGC-3′. PCR was performed with the SYBR Green PCR Kit (Applied Biosystems, Foster City, Calif.) following the manufacturer's instructions and carried out on the Mx3005P™ Q-PCR system (Stratagene, La Jolla, Calif.) in 50 μl volume. The number of copies for each amplicon was calculated by Mx3005P software, normalized to GAPDH and expressed as a dimensionless ratio.

[3] = system: ACL, FAS, ACCα, CPTI, PPARα, PPARγ and SREBP1 mRNA in mouse liver tissue; experiment: Real-time PCR of hepatic mRNA expression in ethanol-fed mice (Example 6); format: in vivo; conditions: chronic ethanol ingestion, 50 mg/Kg/Day, n=5
Description: Real-time PCR quantitation of mRNA. Total RNA was isolated from liver tissue using Trizol reagent (Invitrogen, USA) and RNA extracted according to the manufacturer's instructions, then dissolved in sterile DEPC water and stored at −80° C. 1 μg of sample RNA was transcribed to cDNA with the GeneAmp RNA Core Kit (Applied Biosystems, Branchburg, N.J.). […] The number of copies for each amplicon was calculated by Mx3005P software, normalized to GAPDH and expressed as a dimensionless ratio.
Materials and methods. mRNA expression of genes in hepatic tissue was assessed by Real-time PCR and normalized to GAPDH. […] The number of copies for each amplicon was calculated by Mx3005P software, normalized to GAPDH and expressed as a dimensionless ratio.

[4] = system: ethanol-induced fatty liver in C57Bl/6 mice; experiment: Ethanol-induced fatty liver in mice treated with adenosine receptor antagonists (Example 5); format: in vivo, mouse; conditions: ethanol diet 6 weeks, 50 mg/Kg/Day, versus ethanol-treated wild type mice
Text: Mouse models of fatty livers and treatment. Mice were fed an ethanol-containing liquid Lieber-De-Carli diet (ethanol provides 350 Kcal/L) or a calorie equivalent diet supplemented with maltose (BioServ Inc., Frenchtown, N.J.) for 6 weeks. […] In first week, animals were gradually introduced to the ethanol diet following the manufacturer's instructions. Mice were sacrificed by CO2 narcosis at the end of the experiment and their livers were collected. Two wild type mice and one CD73 knockout mouse on an ethanol-containing diet died, and none of the antagonist-treated or other knockout mice died during the course of these experiments.
Hematoxylin-Eosin (H&E) and Oil Red O staining of liver sections. Livers were fixed with 10% neutral formalin, embedded in paraffin and stained with H&E for histological examination. Liver steatosis was graded as previously described (Hong et al., Hepatology (2004) 40:933-941) based on the semiquantitative estimation of the percentage of lipid-laden hepatocytes in the liver according to the following criteria: grade 0: no hepatocytes involved; grade 1: 1% to 25% of hepatocytes involved; grade 2: 26% to 50% of hepatocytes involved; grade 3: 51% to 75% of hepatocytes involved; and grade 4: 76% to 100% of hepatocytes involved. At least five random different high power fields (hpf) of each cross-section (400× magnification) were graded in a blinded way. […]
Measurements of serum AST and triglyceride. […] AST and triglyceride were measured by standard techniques in the Clinical Laboratory of Bellevue Hospital. […]
Materials and Methods. […] The liver and body of the mice were weighed on the day of sacrifice and the liver/total body weight ratio calculated. The serum AST and triglyceride and hepatic tissue triglyceride levels were also measured, as described in Example 3, supra. […]

[5] = system: fatty acid synthase (FAS) mRNA; experiment: Real-time PCR of FAS mRNA in cultured AML-12 hepatocytes; format: cell-based, mouse; conditions: AML-12 cells, 24 hours; for mRNA for FAS: 10^-6M, control 100.0%, n=3
Description: as §1

[6] = system: AML-12 hepatocytic cells; experiment: Fat accumulation in AML-12 cells: Oil Red O staining and cellular triglyceride (Example 7); conditions: twenty-four hours; for blockade of the effect of NECA on hepatocyte triglyceride accumulation / intracellular triglyceride levels / lipid accumulation by Oil Red O staining: NECA 10 mM; for blockade of the effect of NECA on hepatocyte triglyceride accumulation: MRS1706 1 mM
Description: Hepatocyte cell culture, triglyceride measurement and oil red O staining of hepatocytes. […] AML-12 Cells were grown in 1:1 mixture of DMEM-Ham's F-12 medium supplemented with 0.005 mg/ml insulin, 0.005 mg/ml transferrin, 5 ng/ml selenium, 40 ng/ml dexamethasone, 10% fetal bovine serum and antibiotics. Upon reaching 70-80% confluence the cells were treated for 6 hours in serum-free DMEM-Ham's F-12 medium and then treated with different adenosine receptor agonists, antagonists or vehicle (DSMO, 1.28×10^−5M), respectively. The method of the triglyceride measurement of hepatocytes is the same as the liver tissue. The cells were fixed with 10% neutral formalin, and Oil Red O staining as described above.

Row | Compound | mRNA for ACL [2] [%] | serum AST levels [4] | mRNA for FAS [5] [%] | blockade of the effect of NECA on hepatocyte triglyceride accumulation ([6]; DPCPX 1mM) | intracellular triglyceride levels ([6]; CPA 1 mM) | lipid accumulation by Oil Red O staining ([6]; CPA 1 mM) | other results
1 | CCCn1c(=O)c2[nH]c(C3CCCC3)nc2n(CCC)c1=O [DPCPX, 1,3 dipropyl-8-cyclopentylxantine] | 92.0±5.2 | significantly lower | 105.8±5.3 | partly blocked |  |  | blockade of the effect of CPA on lipid content of hepatocytes ([1]; CPA 10^-6M + DPCPX 10^-6M): nearly completely blocked; blockade of the CPA-induced increase of mRNA for ACL [2]: completely blocked; ethanol-induced change of mRNA expression of ACCα, CPT1 and PPARα in liver [3]: reduced; ethanol-induced mRNA expression of ACL, FAS, PPARγ and SREBP1 in liver [3]: prevented the ethanol-induced increase in expression; blockade of the CPA-induced increase of mRNA for FAS [5]: completely blocked; blockade of the effect of CPA on hepatocyte triglyceride accumulation ([6]; CPA 1 mM, DPCPX 1mM): almost completely abrogated
2 | CCNC(=O)[C@H]1O[C@@H](n2cnc3c(N)ncnc32)[C@H](O)[C@@H]1O [NECA, 5′-N-ethylcarboxamidoadenosine] |  |  |  |  | increased | accumulated lipid | 
3 | CCCn1c(=O)c2[nH]c(-c3ccc(OCC(=O)Nc4ccc(C(C)=O)cc4)cc3)nc2n(CCC)c1=O [MRS1706, N-(4-aceptylphenyl)-2-[4-(2,3,6,7-tetrahydro-2,6-dioxo-1,3-dipropyl-1H-purine-8-yl)phenoxy]acetamide] |  |  |  | almost completely abrogated |  |  | 
4 | OC[C@H]1O[C@@H](n2cnc3c(NC4CCCC4)ncnc32)[C@H](O)[C@@H]1O [CPA, N6-cyclopentyladenosine] | 181.4±12.9 |  | 164.2±6.8 |  | increased | accumulated lipid | lipid content of hepatocytes ([1]; CPA 10^-6M, Oil Red O): significantly increased
5 | CCCn1c(=O)[nH]c(=O)c2[nH]cnc21 [enprofylline, 3-propylxanthine] |  | significantly lower |  |  |  |  | serum triglyceride levels [4]: significant reduction
